Assay results published in BindingDB's records for PubMed 31931340 (n/a, 2020).

Target: PIK3CA
Experiment: Inhibition of human P13Kalpha

- IC50: 15 nM
Compound: CN(c1nc(-c2cnc(N)nc2)nc(N2CCOCC2)n1)C1CCN(C(=O)c2ccccc2)CC1
